This note sets out measurements from patent US11471463B2, “Enhancers of cellular cannibalism for use to sensitize tumors to radiation therapy” (Institut Gustave-Roussy, priority 2017, dated 2022).

Peptide text beside a SMILES is read from it. * marks the point of attachment. Cbz = O=C(OCc1ccccc1)*; CH2F = FC*

For assay [1], the system named is HCT116 cells. Kind of assay: Cell death profiling by quantitative flow imaging of co-cultured irradiated and non-irradiated cells. The class given is cell-based, human. The settings on record: 4 grays, 24 hour co-culture; for Engulfment of neighboring cells by gamma-irradiated CMFDA+ cells (cell-in-cell internalization): Y27632 30 μM; for Engulfment of neighboring cells by gamma-irradiated CMFDA+ cells (cell-in-cell internalization) / Exposure of PS on the outer plasma membrane of irradiated CMFDA+ cells: Z-VAD-fmk 100 μM; for Exposure of PS on the outer plasma membrane of irradiated CMFDA+ cells: Roscovitine 10 μM. How it is done: Untreated HCT116 cells were labeled with CMFDA (green fluorescence, CMFDA^+) or CMTMR, (red fluorescence, CMTMR^+) and treated HCT116 cells with CMFDA (green fluorescence, CMFDA^+). The following cell mixtures were performed: untreated CMTMR^+ HCT116 cells were mixed with untreated CMFDA^+ HCT116 cells, or untreated CMTMR^+ HCT116 cells were mixed with treated CMFDA^+ HCT116 cells. Then, cells were co-cultured during 24 hours in the presence or absence of the pharmacological inhibitor of ROCK, Y27632 (30 μM), the pan-caspase inhibitor, Z-VAD-fmk (ZVAD, 100 μM), the inhibitor of caspase-1, Ac-YVAD-cmk (YVAD, 100 μM), the necroptosis inhibitor, Necrostatin-1 (NEC 1, 30 μM), the inhibitor of the vacuolar type H(+)-ATPase (V-ATPase) inhibiting autophagy, Bafilomycin A1 (BafA1, 50 nM), the inhibitor of Cdks with an anti-mitotic activity, Roscovitine (Rosco, 10 μM). After 24 hours of co-culture, both detached and adherent cells were collected and stained with Hoechst 33345 ([…]) during 1 hour at 37° C. in warmed complete medium. To detect phosphatidylserine (PS) exposure and plasma membrane permeability, labeled HCT116 cells were successively incubated with Biotin-AnnexinV (BD Pharmingen) as recommended by manufacturer, […] BV786-Streptavidin (BD Biosciences) and […] DRAQ7 (BioStatus) during 15 minutes at 25° C. After washing with PBS solution, samples were immediately analyzed using an imaging flow cytometer FlowSight® (Amnis®, part of EMD Millipore). Data were acquired at a 20× magnification, using INSPIRE software. The 405 nm, 488 nm, and 561 nm lasers were used for excitation. Brightfield, Annexin V-BV786, DRAQ7, CMFDA, CMTMR and Hoechst 33345 stainings were detected using respectively channels for 420-480 nm, 745-800 nm, 642-745 nm, 480-560 nm, 595-642 nm and 430-505 nm. At least 1000 events of cells per sample were analyzed. Additional single-labeled controls were prepared to normalize fluorescent signal across different channels. Acquired data were analyzed using the IDEAS analysis software (v6.1; Merck-Millipore). Gating strategy was the following. Cells were gated for focused cells using the Gradient RMS feature. Cells were gated for single cells using the aspect ratio and area features. For the cannibalism detection, cells were gated in the double positive CMFDA^+ and CMTMR^+ staining.
To detect PS exposure, plasma membrane permeability and cell cycle progression, cells were after co-culture sequentially labeled with specific fluorescent probes (such as FITC-conjugated AnnexinV, propidium iodide, and Hoechst 33342) and analyzed by flow cytometry. Both detached and adherent cells were collected and stained with Hoechst 33345 (10 ug/ml) during 1 hour at 37° C. in warmed complete medium. After washing with PBS, HCT116 cells were suspended in 1X binding buffer supplemented with fluorescein isothiocyanate (FITC)-conjugated Annexin V (BD Biosciences) and propidium iodide (PI, 1 μg/mL) (Sigma), as per manufacturer's instructions. Samples were then analyzed using LSRII flow cytometer (Becton Dickinson) and the FlowJo software v10. For confocal fluorescence microscopy, HCT116 cells were fixed after co-culture in 3,7% paraformaldehyde-PBS for 15 minutes and counterstained with 1 μg/mL Hoechst 33342 (Invitrogen) for 15 minutes. Then, cells were analyzed by confocal SPE microscope equipped with Apochromat 63×1.3 NA and 63×1.15 NA oil immersion objectives. The Leica Application Suite (LAS) software was used (Leica Microsystems).
Considering the diversity of lethal stimuli that can potentially initiate both non-cell autonomous and cell autonomous cell death modalities and the complexity of signaling pathways (involving (or not) caspases, cathepsins or granzymes) that control both processes, it was decided to simultaneously detect non-cell autonomous and cell autonomous death modalities elicited by IR. […]

The test system of assay [2] is MCA205 cells. Put plainly: Anti-tumor vaccination assay, treated MCA205 cells inoculated into C57BL/6 mice and rechallenge. The format is in vivo, mouse. How it is done:
(§1) FIG. 5. Identification of cannibalism modulators as immunogenic cell death inducers. MCA205 (A) or CT26 (E, I, M, Q) cells were treated with the indicated drugs. After 24 h of coculture with the indicated treatment, cell death was monitored by staining DiOC6(3) and PI, and the percentage of dying (DiOC6(3)^low PI^−, open bars) and dead (DiOC6(3)^low PI^+, closed bars) cells was determined by cytofluorometry. (B-D) MCA205 cells or (F-H, J-L, N-P, R-T) CT26 cells cocultured after x irradiation with the indicated compounds were inoculated subcutaneously into the right flank of […] or BALB/c mice, respectively. Seven days later, the mice were rechallenged with live cells injected into the opposite flank, and tumor growth was monitored (five mice per group).
(§2) Considering that immunogenic cell death (ICD) inducers were identified (such as Digoxin, Digitoxin, Lanatoside C or Doxorubicin hydrochloride)^3, 4, 48-51) as IRCCE, the ability of these compounds to induce an antitumor immunity after radiotherapy was evaluated. […] Tumors were evaluated weekly using a common caliper. […] One week later, 5×10^5 untreated control cells were inoculated into the contralateral flank of mice and tumors were evaluated weekly using a common caliper. […] The percentage of dying cells in each condition was evaluated by determining with DiOC(6)3/IP staining (FIGS. 5E, 5I, 5M and 5Q). […]

In assay [3] the test system is MCA205 cells. Kind of assay: Cell death monitoring by DiOC6(3)/PI staining. The format is cell-based, mouse. How it is done: as §1, §2
Assay [4] concerns HCT116 cells. Put plainly: Screening for enhancers of IR-mediated cellular cannibalism (imaging flow cytometry, confocal microscopy validation). The class given is cell-based, human. To be noted: 8 Gray, 10 μM compound, 24 hours of culture. How it is done: FIG. 4 Identification of cannibalism modulators triggered by ionizing radiation. Compounds from the Prestwick (A) and CEA (F) libraries were tested for their capacities to induce cellular cannibalism after ionizing radiation. Cannibal cells were detected after homotypic cultures of 8 gray γ-irradiation HCT116 cells in the presence or absence of […] of the Prestwick (A) and CEA […] library compounds. Each dot represents one compound. Representative images are shown in (B, G). (C, H) HCT116 cells were treated with the indicated drugs. After 24 h of treatment, cell death was monitored by staining with 3,3 dihexyloxacarbocyanine iodide (DiOC6(3)) and PI, and the percentage of dying (DiOC6(3)^low PI^−, open bars) and dead (DiOC6(3)^low PI^+, closed bars) cells was determined by cytofluorometry. Validation of the cannibalism inducers by fluorescent microscopy. Representative images (D, I) and quantification (E, J) are shown. Results are means±s.e.m. of triplicate determinations.
Then, the screening of a library of chemical compounds was developed in order to identify compounds able to induce IR-mediated cellular cannibalism. Thus, HCT116 cells that have been treated with a radiation dose of 8 Gray were stained either with orange CMTMR cell tracker or green CMFDA cell tracker and cultivated in presence of 10 μM of chemical compounds. After 24 hours of culture, cells have been stained with nuclear dye (5 μg/ml of Hoechst 33342 during 1 h at 37° C.) and analyzed using the FlowSight® Imaging Flow Cytometer for cellular cannibalism. Each of these compounds were classified according to their Z-score^47 and identified respectively 13 and 11 candidate compounds (FIGS. 4A, 4B, 4F and 4G). Then, the identified compounds were validated by combining flow cytometry approaches (in order to eliminate cytotoxic compounds by simultaneously monitoring the depolarization of the internal mitochondrial membrane and the plasma membrane permeability of the treated cells) with confocal microscopy approaches (to confirm the modulation of IR-induced cellular cannibalism by candidate compounds) (FIGS. 4C-E and 4H-J). […] Finally, 16 chemical compounds that are able to enhance the capacity of IR to trigger cellular cannibalism were identified (FIGS. 4E and 4J, Tables 1&2).

In another assay the test system is CT26 cells. Put plainly: Anti-tumor vaccination assay, treated CT26 cells inoculated into BALB/c mice and rechallenge. The format is in vivo, mouse. To be noted: 8 Gy in presence of 10 μM compound for 24 hours. How it is done:
as §1
FIG. 6. Tumor vaccination experiments. CT26 cells were treated for 24 hours with 10 μM VP331 (A, F, K), 10 μM Minaprine (B, G, L), 10 μM Lopa87 (C, H, M), 10 μM SG6163F (D, I, N), 10 μM Azaguanine-8 (8-aza) (E, J, O) alone or combined with 8 Gy ionizing radiation and inoculated (s.c.) into immunocompetent BALB/c mice, which were rechallenged at the opposite flank 7 days later with the same cancer cells. The percentage of tumor-free mice was evaluated three times a week for the following 38 days. Percentage of total tumor free mice (A-E), tumor free-mice at the first injection site (F to J, P) or at the second injection site (K to O, Q) are shown. (*P<0.05, **P<0.01, ***P<0.001, two-way ANOVA).
Considering that immunogenic cell death (ICD) inducers were identified (such as Digoxin, Digitoxin, Lanatoside C or Doxorubicin hydrochloride)^3, 4, 48-51) as IRCCE, the ability of these compounds to induce an antitumor immunity after radiotherapy was evaluated. First, a preclinical approaches was developed to study the immunological effects of IRCCE on two mouse models of carcinoma (colon CT26 carcinoma and fibrosarcoma MCA205). Initially, the ability of the combination of IRCCE+IR to trigger a specific anti-tumor immune response was appreciated using immunocompetent mice through anti-tumor vaccination assays. According to previously published studies^52, the injection of cancer cells succumbing to an immunogenic cell death (ICD) into immunocompetent mice must elicit a protective immune response that is specific for tumor antigens. Thus, 3×10^5 MCA205 cells were first treated with 10 μM of SG6163F for 24 hours. Then, treated cells were inoculated subcutaneously in 200 μl PBS into the lower flank of 8-week-old female C57BL/6 mice. One week later, 3×10^4 untreated control cells were inoculated into the contralateral flank of mice. Tumors were evaluated weekly using a common caliper. Animals bearing tumors that exceeded 20-25% body mass were euthanatized. […] Then, 3×10^6 CT26 cells were irradiated with 8 Gy in presence of 10 μM of SG6163F (FIGS. 5E and 5F), VP331 (FIGS. 5I and 5J), Minaprine dihydrochloride (FIGS. 5M and 5N) or LOPA87 (FIGS. 5Q and 5R) for 24 hours. Then, cells were inoculated as previously described subcutaneously in 200 μl PBS into the lower flank of 8-week-old female BALB/c mice. One week later, 5×10^5 untreated control cells were inoculated into the contralateral flank of mice and tumors were evaluated weekly using a common caliper. As previously mentioned, animals bearing tumors that exceeded 20-25% body mass were euthanatized. The percentage of dying cells in each condition was evaluated by determining with DiOC(6)3/IP staining (FIGS. 5E, 5I, 5M and 5Q). Finally, the ability of these compounds to repress the growth of cancer cells that have been injected 7 days after injection of irradiated and treated cancer cells was appreciated.
A second anti-tumor vaccination assay was done on CT26 mouse models of carcinoma as previously described. […]

For `C[C@@H](N)[C@H]1CC[C@H](C(=O)Nc2ccncc2)CC1` [Y27632], in the assay with HCT116 cells [1], the “Engulfment of neighboring cells by gamma-irradiated CMFDA+ cells (cell-in-cell internalization)” value is “repressed”.
Consider `CO/C1=C\C(C)=C\[C@@H](C)[C@@H](O)[C@@H](C)C/C(C)=C/C=C/[C@H](OC)[C@@H]([C@@H](C)[C@@H](O)[C@H](C)[C@@]2(O)C[C@@H](O)[C@H](C)[C@@H](C(C)C)O2)OC1=O` [bafilomycin A1, Bafilomycin A1], for which the “Frequency of dying cells (AnnexinV+DRAQ7- and DRAQ7+ cells)” value in the assay on HCT116 cells [1] (total, non-irradiated CMTMR+ and irradiated CMFDA+ cells, BafA1 50 nM) is on record as “increased the frequency of dying cells”.
`COC(=O)CC(NC(=O)C(C)NC(=O)C(NC(=O)OCc1ccccc1)C(C)C)C(=O)CF` (stereo not drawn) [Z-VAD-fmk, Benzyloxycarbonyl-Val-Ala-Asp(OMe)-fluoromethylketone] (Cbz-Val-Ala-Asp(OMe)-CH2F; configuration not given here): in the assay with HCT116 cells [1], the “Engulfment of neighboring cells by gamma-irradiated CMFDA+ cells (cell-in-cell internalization)” value is listed as “not affected” and the “Exposure of PS on the outer plasma membrane of irradiated CMFDA+ cells” value was “inhibited the exposure of PS”. In the assay with HCT116 cells [1] (inhibitors 100 μM), the “Cellular degradation of engulfed CMTMR+ cells” value was “significantly reduced”.
For `CC[C@H](CO)Nc1nc(NCc2ccccc2)c2ncn(C(C)C)c2n1` [roscovitine, Roscovitine], the “Exposure of PS on the outer plasma membrane of irradiated CMFDA+ cells” value in the assay with HCT116 cells [1] is reported as “inhibited the exposure of PS”.
With `O=C1NC(c2ccccc2)=N/C1=C\c1cc2ccccc2c2ccccc12` [SG6163F], the “Protective response after inoculation of untreated cells” value with MCA205 cells [2] (MCA205 cells treated with 10 μM compound alone, rechallenge one week later) is on record as “did not exhibit a protective response”. Moreover, the “Mice with protective response” value in the assay on MCA205 cells [2] (MCA205 cells treated with 8 Gy of IR and 10 μM compound) was 3 of 5. The “Increase of cell death in vitro” value in the assay with MCA205 cells [3] (10 μM compound alone, 24 hours) is listed as “not able to induce a significant increase of cell death”. Further, the “Increase of death of treated and irradiated cells” value in the assay with MCA205 cells [3] (8 Gy of IR and 10 μM compound) is “absence of a significant increase of death”. For the same compound, in the assay with HCT116 cells [4], the “Enhancement of IR-mediated cellular cannibalism (IRCCE)” value is reported as “efficient cellular cannibalism enhancer”. Moreover, the “Frequency of mice showing a protective response” value with CT26 cells (first assay: CT26 cells, rechallenge one week later) is “significant increase in the frequency of mice showing a protective response”; in the assay on CT26 cells (second assay: CT26 cells, rechallenge 7 days later) it was “Significant increases in the frequency of mice showing a protective response”.
